Reference: patent publication US11344532B2, “Topically administrable formulation for the control and prevention of animal parasites” (BAYER ANIMAL HEALTH GMBH, priority 2017, dated 2022)
Where two headings read alike, the source gives them in different places.

Legend:
[1] = solubilities of active compounds in solvents; assay type: physicochemical
Procedure: The flash point of 130° C. is sufficiently high for safe production. Studies with selected fluorinated antiparasitics in triethyl phosphate formulations show good and long-lasting activity against fleas and various ticks on dogs and cats.

[2] = toxicity of triethyl phosphate
[3] = skin compatibility of triethyl phosphate; conditions: with rats, dogs and cats
[4] = solvent 83.3% propylene carbonate 16.7% benzyl alcohol

SMILES | solubility in 83.3% propylene carbonate 16.7% benzyl alcohol [1, 4] | solubility in propylene carbonate ([1]; solvent propylene carbonate) | solubility in triethyl phosphate ([1]; solvent triethyl phosphate) | toxicity [2] | skin compatibility [3] | solubility in 83.3% propylene carbonate 16.7% benzyl alcohol [1] | solubility in propylene carbonate [1] | solubility in triethyl phosphate [1]
O=C(NC1CC1)c1cc(-c2cnn(-c3c(Cl)cc(C(F)(C(F)(F)F)C(F)(F)F)cc3OC(F)(F)F)c2)cnc1Cl [Compound 1, 2-chloro-5-[1-[2-chloro-4-[1,2,2,2-tetrafluoro-1-(trifluoromethyl)ethyl]-6-(trifluoromethoxy)phenyl]-1H-pyrazol-4-yl]-N-cyclopropyl-3-pyridinecarboxamide] | 17% (w/w) | 5% (w/w) | 44% (w/w) | – | – | – | – | –
O=C(NC1CC1)c1cc(-c2cnn(-c3c(Cl)cc(C(F)(C(F)(F)F)C(F)(F)F)cc3C(F)(F)F)c2)cnc1Cl [Compound 2, 2-chloro-5-[1-[2-chloro-4-[1,2,2,2-tetrafluoro-1-(trifluoromethyl)ethyl]-6-(trifluoromethyl)phenyl]-1H-pyrazol-4-yl]-N-cyclopropyl-3-pyridinecarboxamide] | 14% (w/w) | 4% (w/w) | 40% (w/w) | – | – | – | – | –
CCOP(=O)(OCC)OCC [Triethyl phosphate, triethyl phosphate] | – | – | – | low toxicity | excellent skin compatibility | – | – | –
N#Cc1nn(-c2c(Cl)cc(C(F)(F)F)cc2Cl)c(N)c1[S+]([O-])C(F)(F)F (centres unmarked) [fipronil] | – | – | – | – | – | 5% (w/w) | 11% (w/w) | 36% (w/w)
Cc1cc(C2=NOC(c3cc(Cl)cc(Cl)c3)(C(F)(F)F)C2)ccc1C(=O)NCC(=O)NCC(F)(F)F (centres unmarked) [fluralaner] | 13% (w/w) | 7% (w/w) | 41% (w/w) | – | – | – | – | –
CON=CNC(=O)c1ccc(C2=NOC(c3cc(Cl)cc(Cl)c3)(C(F)(F)F)C2)cc1C (centres unmarked) [fluxametamide] | 6% (w/w) | 3% (w/w) | 20% (w/w) | – | – | – | – | –
N#Cc1nn(-c2c(Cl)cc(C(F)(F)F)cc2Cl)c(NCc2ccccn2)c1SC(F)F [pyriprole] | 28% (w/w) | 21% (w/w) | 49% (w/w) | – | – | – | – | –
Cn1nc(C(F)(F)C(F)(F)F)c(C(F)(F)F)c1-n1cc(-c2ccc(Cl)c(C(=O)NC3(C#N)CC3)c2)cn1 [tigolaner] | 20% (w/w) | 26% (w/w) | 52% (w/w) | – | – | – | – | –
